Experimental data taken from PubChem BioAssay (NCI).
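48-hour exposure; five concentrations; linearly interpolated endpoints. Abbreviation: GI50, concentration required for 50% inhibition of growth. Definition used: TGI = concentration required for complete inhibition of growth.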

Key:
Assay in all cases: NCI tumour cell line growth inhibition, 48 h
UACC-257 melanoma = tested on: UACC-257 melanoma
MALME-3M melanoma = tested on: MALME-3M melanoma
SNB-75 CNS = tested on: SNB-75 CNS
IGROV1 ovarian = tested on: IGROV1 ovarian
RPMI-8226 leukemia = tested on: RPMI-8226 leukemia
ACHN renal = tested on: ACHN renal
CAKI-1 renal = tested on: CAKI-1 renal
SK-MEL-2 melanoma = tested on: SK-MEL-2 melanoma
UO-31 renal = tested on: UO-31 renal
HCC-2998 colon = tested on: HCC-2998 colon

| Compound | GI50 (UACC-257 melanoma) | TGI (UACC-257 melanoma) | GI50 (MALME-3M melanoma) | TGI (MALME-3M melanoma) | GI50 (SNB-75 CNS) | TGI (SNB-75 CNS) | GI50 (IGROV1 ovarian) | TGI (IGROV1 ovarian) | GI50 (RPMI-8226 leukemia) | TGI (RPMI-8226 leukemia) | GI50 (ACHN renal) | TGI (ACHN renal) | GI50 (CAKI-1 renal) | TGI (CAKI-1 renal) | GI50 (SK-MEL-2 melanoma) | TGI (SK-MEL-2 melanoma) | GI50 (UO-31 renal) | TGI (UO-31 renal) | GI50 (HCC-2998 colon) | TGI (HCC-2998 colon) |
| --- | --- | --- | --- | --- | --- | --- | --- | --- | --- | --- | --- | --- | --- | --- | --- | --- | --- | --- | --- | --- |
| C=CC(=O)Nc1ccc(Nc2nccc(-c3ccc(N4CCCC4)c(C#N)c3)n2)cc1 | 5.37 µM | 17 µM | 5.06 µM | 20 µM | 3.37 µM | > 25 µM | 1.85 µM | > 25 µM | 10.1 µM | > 25 µM | 2.45 µM | > 25 µM | 4.6 µM | > 25 µM | 22.7 µM | > 25 µM | 1.06 µM | > 25 µM | > 25 µM | > 25 µM |
| C=CCC1OC(C)(C)Oc2ccc(OCOCCOC)cc21 (stereo unspecified) |  | > 100 µM |  | > 100 µM |  | > 100 µM |  | > 100 µM |  |  |  | > 100 µM |  | > 100 µM |  | > 100 µM |  | > 100 µM |  | > 100 µM |
| N=C(c1ccccc1)N(c1ccccc1)c1ccccc1 |  | > 100 µM |  | 94.6 µM |  | > 100 µM |  |  |  |  |  |  |  | > 100 µM |  | > 100 µM |  | > 100 µM |  | > 100 µM |
| Nc1nc(CCC(=O)Nc2cccc(C(F)(F)F)c2)cc(-c2cccc3ccccc23)n1 |  | > 100 µM |  | > 100 µM |  | > 100 µM |  | > 100 µM |  |  |  | > 100 µM |  | > 100 µM |  | > 100 µM |  | > 100 µM |  | > 100 µM |
| FC(F)(F)C1(Cl)C(c2ccccc2)=C1c1ccccc1 |  | 27.2 µM |  | 28.5 µM |  |  |  | 29.5 µM |  | > 100 µM |  | 30.2 µM |  | 25.3 µM |  | 28.5 µM |  | 31.9 µM |  | 31.8 µM |
| C1OCC2S[C@@H]3COCO[C@@H]3C2O1 (stereo partly specified) |  | > 100 µM |  | > 100 µM |  | > 100 µM |  |  |  | > 100 µM |  | > 100 µM |  | > 100 µM |  |  |  | > 100 µM |  | > 100 µM |
| Cc1[nH]ncc1-c1cc2nc(C3CC4CCN3CC4)[nH]c(=O)c2s1 (stereo unspecified) | 5.79 µM | 84 µM | 6.02 µM | 74 µM | 1.01 µM | 9.55 µM | 3.47 µM | > 100 µM | 18.2 µM | > 100 µM | 1.88 µM | > 100 µM | 2.43 µM | > 100 µM | 8.8 µM | 29.5 µM | 2.91 µM | > 100 µM | 7.09 µM | > 100 µM |
| CC12CC3C(CC1SCC(=O)O2)C3(C)C (stereo unspecified) |  | > 100 µM |  | > 100 µM |  | > 100 µM |  | > 100 µM |  | > 100 µM |  | > 100 µM |  |  |  | > 100 µM |  | > 100 µM |  | > 100 µM |
| COc1cc(/C(Cl)=C/C=C/C(=O)c2c(C)[n+]([O-])c3ccc(Cl)cc3[n+]2[O-])cc(OC)c1OC | 16.6 µM | > 50 µM | 6.35 µM | 18.5 µM | 4.06 µM | 19.6 µM | 3.78 µM | 13.2 µM | 2.18 µM | > 50 µM | 5.15 µM | 11.6 µM | 1.66 µM | 10.6 µM |  |  | 2.63 µM | 18.7 µM | 16.7 µM | > 50 µM |
| C1=C(c2ccccc2)CN(c2ccccc2)OC1 |  |  |  | > 100 µM |  | > 100 µM |  | > 100 µM |  | > 100 µM |  | > 100 µM |  | > 100 µM |  | > 100 µM |  | > 100 µM |  | > 100 µM |
| O=C1OC(=O)c2c1c(-c1ccccc1)cn2-c1ccc(Cl)cc1 |  | > 100 µM |  | > 100 µM |  | > 100 µM |  | > 100 µM |  | > 100 µM |  | > 100 µM |  |  |  | > 100 µM |  | > 100 µM |  | > 100 µM |
| COc1ccc(/C=C2\CN(C)Cc3c2nc(N)nc3-c2ccc(OC)cc2)cc1 |  |  |  | > 100 µM |  | > 100 µM |  | > 100 µM |  | > 100 µM |  | > 100 µM |  | > 100 µM |  | > 100 µM |  | > 100 µM |  | > 100 µM |
| O=P([O-])(O)OP(=O)([O-])O.[NH-][C@H]1CCCC[C@@H]1[NH-].[OH-].[OH-].[Pt+4] | 37 µM | > 100 µM | 14.3 µM | 38.2 µM | 20.4 µM | 41 µM | 21.8 µM | 60.4 µM | > 100 µM | > 100 µM | 16.6 µM | 42.1 µM | 34.4 µM | > 100 µM |  |  | 19.1 µM | 44 µM | 28.8 µM | 85.2 µM |
| CC1=CC2CC(C)=C(CC[C@]3(C)CC[C@H]([C@@H](C)C(=O)O)OO3)C(C)(C)C2CC1 (stereo partly specified) |  | 3.03 µM |  | 2.02 µM |  | 2.29 µM |  | 0.453 µM |  |  |  | 2.64 µM |  | 2.76 µM |  | 3.09 µM |  | 2.23 µM |  | 0.818 µM |
| C[N+]1(C)CCCC1C(=O)[O-] (stereo unspecified) |  | > 100 µM |  | > 100 µM |  | > 100 µM |  | > 100 µM |  | > 100 µM |  | > 100 µM |  |  |  | > 100 µM |  | > 100 µM |  | > 100 µM |
| CO/C(=N\N=C\c1cc(OC)ccc1OC)c1ccncc1 |  |  |  | > 10 µM |  | > 10 µM |  | > 10 µM |  | > 10 µM |  | > 10 µM |  |  |  | > 10 µM |  | > 10 µM |  | > 10 µM |
| CC(=O)N1CCN(C2=Nc3ccccc3CO2)C1=S | > 100 µM | > 100 µM | 26 µM | 89 µM | 40.1 µM | > 100 µM | 18.3 µM | 58.1 µM | 41.4 µM | > 100 µM | > 100 µM | > 100 µM | > 100 µM | > 100 µM |  |  | > 100 µM | > 100 µM | 26.9 µM | 97.2 µM |
| O=C(Nc1c(O)[nH]c(=S)[nH]c1=O)c1ccccn1 |  | > 100 µM |  | > 100 µM |  | > 100 µM |  | > 100 µM |  | > 100 µM |  | > 100 µM |  | > 100 µM |  | > 100 µM |  | > 100 µM |  |  |
| CC(=O)OCC1OC(Nc2[nH]c(=O)n(C)c(=O)c2-c2csc(N)n2)C(OC(C)=O)C(OC(C)=O)C1OC(C)=O (stereo unspecified) |  | > 100 µM |  | > 100 µM |  | > 100 µM |  | > 100 µM |  | > 100 µM |  | > 100 µM |  | > 100 µM |  | > 100 µM |  | > 100 µM |  |  |
